# Reference: patent publication US8748417B2, “Amino-pyrrolidine-azetidine diamides as monoacylglycerol lipase inhibitors” (Janssen Pharmaceutica, NV, priority 2010, dated 2014)
# Molecular target: T1, purified wild type MGL (wt-MGLL 6H-11-313) (Homo sapiens, UniProt Q99685)
# T1 construct: purified wild type MGL (wt-MGLL 6H-11-313)
# T1 sequence (Q99685 1-303): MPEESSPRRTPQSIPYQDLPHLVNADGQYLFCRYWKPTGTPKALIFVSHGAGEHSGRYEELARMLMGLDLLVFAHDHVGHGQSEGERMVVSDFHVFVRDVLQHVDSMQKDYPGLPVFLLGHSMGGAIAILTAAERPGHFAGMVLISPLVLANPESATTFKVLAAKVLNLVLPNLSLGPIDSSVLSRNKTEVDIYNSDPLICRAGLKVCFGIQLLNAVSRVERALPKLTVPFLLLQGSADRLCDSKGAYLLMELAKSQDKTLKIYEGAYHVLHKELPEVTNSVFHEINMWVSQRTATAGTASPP
# Assay: MGL enzyme activity assay (4MU-B cleavage), wild type MGL
# Assay type: biochemical
# Conditions: wild type MGL 5 nM, 4MU-B 10 μM, 37° C.; read-out: MGL wild type inh IC50
# Protocol: All rate-based assays were performed in black 384-well polypropylene PCR microplates (Abgene) in a total volume of 30 μL. Substrate 4-methylumbelliferyl butyrate (4MU-B; Sigma) and either purified mutant MGL (mut-MGLL 11-313 L179S L186S) or purified wild type MGL (wt-MGLL 6H-11-313) were diluted separately into 20 mM PIPES buffer (pH=7.0), containing 150 mM NaCl and 0.001% Tween 20. Compounds of Formula (I) were pre-dispensed (50 nL) into the assay plate using a Cartesian Hummingbird prior to adding 4MU-B (25 μL of 1.2× solution to a final concentration of 10 μM) followed by enzyme (5 μL of a 6× solution to a final concentration of 5 nM) to initiate the reaction. Final compound concentrations ranged from 17 to 0.0003 μM. The fluorescence change due to 4MU-B cleavage was monitored with excitation and emission wavelengths of 335 and 440 nm, respectively, and a bandwidth of 10 nm (Safire^2, Tecan) at 37° C. for 5 min.
# The IC50 values for the following compounds were determined using Microsoft Office Excel from a fit of the equation to the concentration-response plot of the fractional activity as a function of inhibitor concentration.
row,SMILES,IC50
1,"O=C(c1ccc2c(-c3ccccc3)ncnc2c1)N1CC(N[C@H]2CCN(C(=O)c3ccccc3)C2)C1 [Cpd 108, (3S)-1-(Phenylcarbonyl)-N-{1-[(4-phenylquinazolin-7-yl)carbonyl]azetidin-3-yl}pyrrolidin-3-amine]",1.03 µM
2,"O=C(c1cscn1)N1CC[C@H](NC2CN(C(=O)c3cc4ccc(C(F)(F)F)cc4s3)C2)C1 [Cpd 139, (3S)-1-(1,3-Thiazol-4-ylcarbonyl)-N-(1-{[6-(trifluoromethyl)-1-benzothiophen-2-yl]carbonyl}azetidin-3-yl)pyrrolidin-3-amine]",0.311 µM
3,"Cc1c(C(=O)N2CC(N[C@H]3CCN(C(=O)c4nccs4)C3)C2)sc2ccc(-c3ccc(C(F)(F)F)cc3)cc12 [Cpd 91, (3S)-N-[1-({3-Methyl-5-[4-(trifluoromethyl)phenyl]-1-benzothiophen-2-yl}carbonyl)azetidin-3-yl]-1-(1,3-thiazol-2-ylcarbonyl)pyrrolidin-3-amine]",< 0.005 µM
4,"O=C(c1ccc2c(-c3ccc(C(F)(F)F)cc3)ncnc2c1)N1CC(N[C@H]2CCN(C(=O)c3ccccc3)C2)C1 [Cpd 109, (3S)-1-(Phenylcarbonyl)-N-[1-({4-[4-(trifluoromethyl)phenyl]quinazolin-7-yl}carbonyl)azetidin-3-yl]pyrrolidin-3-amine]",0.857 µM
5,"Cc1c(C(=O)N2CC(N(C=O)[C@H]3CCN(C(=O)c4ccccc4)C3)C2)sc2ccc(Cl)cc12 [Cpd 81, N-[1-[(5-Chloro-3-methyl-1-benzothiophen-2-yl)carbonyl]azetidin-3-yl]-N-[(3S)-1-(phenylcarbonyl)pyrrolidin-3-yl]formamide]",4.88 µM
6,"Cc1c(C(=O)N2CC(N(C=O)[C@H]3CCN(C(=O)c4nccs4)C3)C2)sc2ccc(Cl)cc12 [Cpd 82, N-{1-[(5-Chloro-3-methyl-1-benzothiophen-2-yl)carbonyl]azetidin-3-yl}-N-[(3S)-1-(1,3-thiazol-2-ylcarbonyl)pyrrolidin-3-yl]formamide]",0.231 µM
7,"Cc1cc(-c2cccc(C(F)(F)F)c2)ccc1C(=O)N1CC(N[C@H]2CCN(C(=O)c3ccccc3)C2)C1 [Cpd 153, (3S)-N-(1-{[3-Methyl-3′-(trifluoromethyl)biphenyl-4-yl]carbonyl}azetidin-3-yl)-1-(phenylcarbonyl)pyrrolidin-3-amine]",0.176 µM
8,"Cc1c(C(=O)N2CC(N(C=O)[C@H]3CCN(C(=O)c4cscn4)C3)C2)sc2ccc(Cl)cc12 [Cpd 83, N-{1-[(5-Chloro-3-methyl-1-benzothiophen-2-yl)carbonyl]azetidin-3-yl}-N-[(3S)-1-(1,3-thiazol-4-ylcarbonyl)pyrrolidin-3-yl]formamide]",2.44 µM
9,"O=C(c1ccccc1)N1CC[C@H](NC2CN(C(=O)c3sc4cc(C(F)(F)F)ccc4c3-c3ccccc3)C2)C1 [Cpd 74, (3S)-1-(Phenylcarbonyl)-N-(1-{[3-phenyl-6-(trifluoromethyl)-1-benzothiophen-2-yl]carbonyl}azetidin-3-yl)pyrrolidin-3-amine]",0.277 µM
10,"O=C(c1ccc2c(ccn2-c2ncccn2)c1)N1CC(N[C@H]2CCN(C(=O)c3ccccc3)C2)C1 [Cpd 155, (3S)-1-(Phenylcarbonyl)-N-{1-[(1-pyrimidin-2-yl-1H-indol-5-yl)carbonyl]azetidin-3-yl}pyrrolidin-3-amine]",1.28 µM
11,"Cc1nc(-c2ccccc2F)sc1C(=O)N1CC(N[C@H]2CCN(C(=O)c3nccs3)C2)C1 [Cpd 134, (3S)-N-(1-{[2-(2-Fluorophenyl)-4-methyl-1,3-thiazol-5-yl]carbonyl}azetidin-3-yl)-1-(1,3-thiazol-2-ylcarbonyl)pyrrolidin-3-amine]",2.93 µM
12,"Cc1ccc2c(C(F)(F)F)c(C(=O)N3CC(N[C@H]4CCN(C(=O)c5cscn5)C4)C3)sc2c1 [Cpd 185, (3S)-N-(1-{[6-Methyl-3-(trifluoromethyl)-1-benzothiophen-2-yl]carbonyl}azetidin-3-yl)-1-(1,3-thiazol-4-ylcarbonyl)pyrrolidin-3-amine]",0.488 µM
13,"Cc1nc(-c2ccc(Cl)cc2)sc1C(=O)N1CC(N[C@H]2CCN(C(=O)c3nccs3)C2)C1 [Cpd 137, (3S)-N-(1-{[2-(4-Chlorophenyl)-4-methyl-1,3-thiazol-5-yl]carbonyl}azetidin-3-yl)-1-(1,3-thiazol-2-ylcarbonyl)pyrrolidin-3-amine]",0.446 µM
14,"O=C(c1ccc2c(cnn2-c2ccccc2)c1)N1CC(N[C@H]2CCN(C(=O)c3nccs3)C2)C1 [Cpd 120, (3S)-N-{1-[(1-Phenyl-1H-indazol-5-yl)carbonyl]azetidin-3-yl}-1-(1,3-thiazol-2-ylcarbonyl)pyrrolidin-3-amine]",0.372 µM

# Now from value to compound:
row,IC50,SMILES
1,0.35 µM,"Cn1cc(-c2ccccc2)c2ccc(C(=O)N3CC(N[C@H]4CCN(C(=O)c5cscn5)C4)C3)cc21 [Cpd 170, (3S)-N-{1-[(1-Methyl-3-phenyl-1H-indol-6-yl)carbonyl]azetidin-3-yl}-1-(1,3-thiazol-4-ylcarbonyl)pyrrolidin-3-amine]"
2,2.04 µM,"Cn1nc(-c2ccc(F)cc2)c2cc(C(=O)N3CC(N[C@H]4CCN(C(=O)c5cscn5)C4)C3)ccc21 [Cpd 210, (3S)-N-(1-{[3-(4-Fluorophenyl)-1-methyl-1H-indazol-5-yl]carbonyl}azetidin-3-yl)-1-(1,3-thiazol-4-ylcarbonyl)pyrrolidin-3-amine]"
3,0.297 µM,"O=C(c1ccc2c(-c3ccc(F)cc3)c[nH]c2c1)N1CC(N[C@H]2CCN(C(=O)c3ccccc3)C2)C1 [Cpd 191, (3S)-N-(1-{[3-(4-Fluorophenyl)-1H-indol-6-yl]carbonyl}azetidin-3-yl)-1-(phenylcarbonyl)pyrrolidin-3-amine]"
4,0.459 µM,"Cn1nc(-c2cccc(F)c2)c2cc(C(=O)N3CC(N[C@H]4CCN(C(=O)c5ccccc5)C4)C3)ccc21 [Cpd 201, (3S)-N-(1-{[3-(3-Fluorophenyl)-1-methyl-1H-indazol-5-yl]carbonyl}azetidin-3-yl)-1-(phenylcarbonyl)pyrrolidin-3-amine]"
5,0.179 µM,"O=C(c1ccc2c(-c3ccc(C(F)(F)F)cc3)ncnc2c1)N1CC(N[C@H]2CCN(C(=O)c3nccs3)C2)C1 [Cpd 111, (3S)-1-(1,3-Thiazol-2-ylcarbonyl)-N-[1-({4-[4-(trifluoromethyl)phenyl]quinazolin-7-yl}carbonyl)azetidin-3-yl]pyrrolidin-3-amine]"
6,0.107 µM,"Cn1nc(-c2cccc(F)c2)c2cc(C(=O)N3CC(N[C@H]4CCN(C(=O)c5nccs5)C4)C3)ccc21 [Cpd 199, (3S)-N-(1-{[3-(3-Fluorophenyl)-1-methyl-1H-indazol-5-yl]carbonyl}azetidin-3-yl)-1-(1,3-thiazol-2-ylcarbonyl)pyrrolidin-3-amine]"
7,0.152 µM,"Cc1c(C(=O)N2CC(N[C@H]3CCN(C(=O)c4cscn4)C3)C2)sc2cc(F)ccc12 [Cpd 88, (3S)-N-{1-[(6-Fluoro-3-methyl-1-benzothiophen-2-yl)carbonyl]azetidin-3-yl}-1-(1,3-thiazol-4-ylcarbonyl)pyrrolidin-3-amine]"
8,< 0.005 µM,"Cc1c(C(=O)N2CC(N[C@H]3CCN(C(=O)c4cscn4)C3)C2)sc2ccc(-c3cccc(C(F)(F)F)c3)cc12 [Cpd 125, (3S)-N-[1-({3-Methyl-5-[3-(trifluoromethyl)phenyl]-1-benzothiophen-2-yl}carbonyl)azetidin-3-yl]-1-(1,3-thiazol-4-ylcarbonyl)pyrrolidin-3-amine]"
